In patent publication US20130209515A1, “ANTI-INFECTIVE AND IMMUNOMODULATORY COMPOUNDS” (priority 2005, published 2013):
Converted amounts (≈) assume the structure as drawn. “Also recorded” adds a separate entry of the source.

What was measured:
[1] = tested on: 4-hydroxy-2-alkylquinoline (HAQ) production; format: cell-based, Pseudomonas aeruginosa
[2] = tested on: P. aeruginosa; test: P. aeruginosa growth kinetics (spectrophotometric analysis at 600 nm); format: cell-based, Pseudomonas aeruginosa; conditions: for bacterial growth (PA14): FIG. 23B
From the text: P. aeruginosa strains include wild-type (PA14, see Rahme et al., Science 268:1899-1902, 1995); a PA14 mvfR mutant (Cao et al., Proc. Natl. Acad. Sci. USA 98:14613-14618, 2001); a pqsE deletion mutant, generated via pEX18Ap allelic replacement by using sucrose selection (Hoang et al., Gene 212:77-86, 1998), resulting in a 570-bp nonpolar deletion covering 65% of the sequence (Déziel et al. PNAS); and the pqsA (U479) TnphoA mutant obtained from the PA14 Transposon Insertion Mutant Database. Bacteria were grown in LB broth or on 1.5% Bacto-agar (Difco) LB plates. Freshly plated cells served as inoculum.
P. aeruginosa was grown in the presence of 2 mM of 2′-aminoacetophenone (2AA), 3′-aminoacetophenone (3AA), 4′-aminoacetophenone (4AA), or 2′-nitroacetophenone (2NA), or in the absence of any of these compounds (control). Bacterial growth was followed over 26 hours by spectrophotometric analysis at 600 nm.
Bacterial growth was also followed over 35 hours by spectrophotometric analysis at 600 nm.

[3] = tested on: P. aeruginosa PA14; test: Mouse burn and infection (BI) model, survival; format: in vivo, mice; conditions: for final mice survival rate at 7 days post burn and infection: single IV injection at 6 hrs (100 μl 20 mM), control 10% (FIG. 24); for average survival after 5 days: IV tail vein 100 μl of 10 mM, four days prior to burn/infection, n=8-10, control 10% (FIG. 9)
Protocol: Burn wound infection in mice can be established by subcutaneous or topical administration of the bacteria to the sites of the burn. […] Six-week old CD-1 male mice were used.
To induce infection, the mice were placed under general anesthesia via intraperitonial injection of 40 mg/kg Pentobarbital, the ventral surface was shaved, and a central skin fold elevated was simultaneously compressed from both sides for 5 seconds using two 2×2 cm metal blocks preheated to 95-100° C., to produce a non-lethal 5-8% full thickness burn with negligible focal necrosis of the underlying muscle or damage to underlying visceral organs. IP saline was administered for fluid resuscitation for ≧5% total body surface burns: avoiding vital structures, saline was injected into the left lower quadrant of the abdominal area of the anesthetized animal post-burn. This burn procedure was followed by mid-eschar inoculation of 100 μL of bacterial suspension containing ˜5×10^5 CFU. The animals were returned to their cages and provided mouse chow and water ad libitum. Animals typically recover from the anesthesia within 20 minutes post-administration. Criteria used to evaluate anesthesia recovery are state of alertness, mobility, and reaction to surrounding stimuli. Mice were monitored twice a day for symptoms and deaths, with increased monitoring every 6-8 hours during the period of greatest potential for infection and clinical disease.
The mouse full-thickness skin thermal injury infection model was used to test if 2AA restricts P, aeruginosa virulence. This model is predictable and reproducible; clinically relevant; and can lead to MODS and mortality. Briefly, a ˜15% total burn surface area (TBSA) thermal scalding injury is produced on the abdominal skin, leaving the underlying muscle intact, and the inoculum is delivered into the scald eschar. […]

[4] = molecular target: T1, PqsA (Pseudomonas aeruginosa, UniProt Q9I4X3); test: Anthranilic acid accumulation and AA competition in PA14 cultures; format: cell-based; conditions: for accumulation of anthranilic acid: PA14 culture with inhibitor vs control (FIG. 31); for effect of increasing concentrations of AA on inhibition of HAQ production: culture containing 1.5 mM inhibitor (FIG. 32)
T1 construct: endogenous in cells; host or cells: P. aeruginosa PA14 cultures
From the text: In P. aeruginosa anthranilic acid is also produced by the enzymatic systems PhnAB or TrpEG. […] This accumulation could be due to inhibition of PqsA or of any enzyme downstream in the HAQ biosynthesis. […] This reversal could only be explained by a competitive inhibition of an enzyme acting on AA. Because pqsA is the only enzyme of the pqsA-E operon to present similarities with enzymes involved in the activation of aromatic acid group, like the one found in anthranilic acid, we conclude that these inhibitors act on PqsA in a competitive manner with its substrate AA.

[5] = tested on: pyocyanin production; test: Pyocyanin production; format: cell-based, Pseudomonas aeruginosa
[6] = Toxicity of IV 6-FABA in burned mice; format: in vivo
Protocol: Initial experiments were aimed at defining an appropriate mouse administration protocol for 6-FABA, with regard to concentration, time of administration following infection, and inhibition of virulence. […] Accordingly, burn and PA14 infected (BI) mice were subsequently administered a single injection of 20 mM 6-FABA at 6 or 12 hr post BI; and double injections at 6 and 24 hr BI.

[7] = tested on: P. aeruginosa PA14; test: PA14 systemic spread in BI mice (cfu in muscle and blood); format: in vivo
Protocol: Furthermore, 6-FABA, 6CABA, and 4CABA efficacy in limiting PA14 systemic spread was assessed by comparing burn mice infected with PA14 and then treated with the compounds at 6 hr BI with control untreated BI mice. For each experimental set of n=18, 6 mice were sacrificed at 24 hr, and bacteria numbers were determined in muscle tissue underlaying or adjacent to the […] site and in blood. The inoculation procedure used in the thermal injury model greatly limits the initial delivery of bacteria to blood and muscle, so bacteria in these tissues reflect post-infection systemic spread.
In an experiment to determine the whether 6-fluoro-2-aminobenzoic acid (6FABA) affects the systemic spread of P. aeruginosa cells in a mouse burn/infection model, the results of which are shown in FIGS. 28A and 28B, 15 mice were treated with 100 μL of a 20 mM solution of 6-FABA 6 hrs or 12 hours post-burn and infection, and the PA14 cfu/mg of tissue (i.e., in blood and in muscle adjacent to the burn and infection) was determined at 24 hours and 36 hours post-burn.

[8] = physchem; conditions: saline or isotonic
[9] = tested on: pqsA-LacZ (MvfR-dependent pqs operon transcription); test: pqsA-LacZ expression (β-galactosidase activity); format: cell-based, Pseudomonas aeruginosa; conditions: PA14 pqsH/pqsA double mutant, compound added at OD600 1.0 (FIG. 19)
Protocol: To assess the effect of this compound on bacteria, we analyzed the production of HAQs in the presence of 2AA using LC/MS. The bacteria were propagated in the presence of 3 mM 2AA, culture media was collected at different time points, and the HHQ, PQS and HQNO production was measured in the supernatant. […] Since 2AA addition to the P. aeruginosa culture inhibits the production of HHQ and PQS, we assessed the transcription from the pqs operon using a pqsA-LacZ fusion.
To further, understand the mechanism of inhibition of the pqs operon by 2AA, we carried out competition assays of PQS and HHQ with 2AA. The expression of pqsA-LacZ in pqsApqsH double mutants was assessed. Bacteria were grown to an OD600 of 1.0 and HHQ and PQS were added either alone or with 2AA. LacZ expression was assayed at different stages of the growth, using standard protocols.
To determine whether HHQ activates MvfR expression, we generated a PA14pqsH/pqsA double mutant that lacks all HAQ production, and assessed pqsA-lacZ activity in the absence and presence of HHQ and PQS.

[10] = molecular target: T2, MvfR (Pseudomonas aeruginosa, UniProt Q9I4X0); test: MvfR binding to radiolabeled pqsA promoter DNA fragment (gel shift); conditions: 40 pM ligand, E. coli cell lysate containing MvfR (FIGS. 20A, 20B)
T2 construct: made in house; host or cells: E. coli (cell lysate, not purified)
Protocol: FIGS. 20A and 20B show binding of MvfR to the pqsA promoter. FIG. 20A is a gel showing that MvfR binds to the pqsA promoter in the absence of HHQ or PQS, but that binding is increased in the presence of HHQ or PQS. A ^32P-labeled 174-bp DNA fragment containing the pqsA promoter region was mixed with E. coli cell lysate containing MvfR minus ligand (lanes 2-3); plus 40 pM HHQ (lanes 4-5); or plus 40 pM PQS (lanes 6-7). Protein added per reaction: lane 1, 0 ng/μl; lanes 2, 4, and 6, 30 ng/μl; and lanes 3, 5, and 7, 60 ng/μl. HHQ and PQS were added at the final concentration of 40 pM. Reaction mixtures were electrophoresed on 5% non-denatured polyacrylamide gels. FIG. 20B is a graph showing the densitometry of shifted bands.
To determine if HHQ potentiates MvfR DNA-binding, a 174-bp radiolabeled pqsA promoter region DNA fragment containing the potential LysR-box sequence was mixed with E. coli cell lysate containing MvfR.

[11] = 2 mM compound, followed over 26 hours at 600 nm (FIG. 4)

T1 sequence (Q9I4X3 whole entry): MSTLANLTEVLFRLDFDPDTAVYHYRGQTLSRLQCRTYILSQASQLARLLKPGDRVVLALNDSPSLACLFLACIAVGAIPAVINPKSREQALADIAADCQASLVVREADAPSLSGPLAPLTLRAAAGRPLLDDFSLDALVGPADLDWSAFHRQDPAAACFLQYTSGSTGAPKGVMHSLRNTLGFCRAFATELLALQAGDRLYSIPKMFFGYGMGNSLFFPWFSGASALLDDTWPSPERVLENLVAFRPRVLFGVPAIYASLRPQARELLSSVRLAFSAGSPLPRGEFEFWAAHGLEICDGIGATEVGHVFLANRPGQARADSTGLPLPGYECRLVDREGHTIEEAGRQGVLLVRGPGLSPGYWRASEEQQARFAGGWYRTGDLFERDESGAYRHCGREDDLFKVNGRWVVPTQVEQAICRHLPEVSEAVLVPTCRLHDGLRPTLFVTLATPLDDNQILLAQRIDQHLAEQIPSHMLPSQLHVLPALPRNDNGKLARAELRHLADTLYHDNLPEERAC
T2 sequence (Q9I4X0 whole entry, the tested form may be a part): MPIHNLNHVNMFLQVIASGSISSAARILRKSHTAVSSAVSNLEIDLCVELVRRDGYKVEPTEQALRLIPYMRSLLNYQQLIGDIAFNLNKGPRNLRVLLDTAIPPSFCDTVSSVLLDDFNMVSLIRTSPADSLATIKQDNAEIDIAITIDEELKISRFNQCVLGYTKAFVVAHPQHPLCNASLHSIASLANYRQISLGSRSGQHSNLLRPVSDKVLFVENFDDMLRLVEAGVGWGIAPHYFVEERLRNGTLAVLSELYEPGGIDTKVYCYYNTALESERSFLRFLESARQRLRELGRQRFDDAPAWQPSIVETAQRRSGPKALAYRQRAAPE

SMILES: Nc1cc(F)ccc1C(=O)O [4-FABA, 4-fluoro-2-aminobenzoic acid]
- inhibition of 4-hydroxy-2-alkylquinoline (HAQ) production [1]: potent inhibitors

SMILES: Nc1cccc(Cl)c1C(=O)O [6-CABA, 6-chloro-2-aminobenzoic acid]
- bacterial growth (PA14) [2]: without affecting bacterial growth; also recorded: does not inhibit PA14 growth
- HAQ production / HAQs synthesis [1]: inhibited HAQ production; also recorded: completely halted
- inhibition of 4-hydroxy-2-alkylquinoline (HAQ) production [1]: potent inhibitors
- production of the principal members of the three main HAQ families (HHQ, HQNO, PQS) [1]: dramatically decreased
- final mice survival rate at 7 days post burn and infection [3]: ~40%
- accumulation of anthranilic acid [4]: transient accumulation
- effect of increasing concentrations of AA on inhibition of HAQ production [4]: reversed the inhibition
- pyocyanin production [5]: without abrogating pyocyanin production

SMILES: CC(=O)c1cccc(N)c1 [3AA, 3′-aminoacetophenone]
- Bacterial growth [2, 11]: only slightly retarded
- average survival after 5 days [3]: 50%

SMILES: Nc1cccc(F)c1C(=O)O [6-FABA, 6-fluoro-2-aminobenzoic acid]
- bacterial growth (PA14) [2]: without affecting bacterial growth
- HAQ production / HAQs synthesis [1]: inhibited HAQ production; also recorded: completely halted
- inhibition of 4-hydroxy-2-alkylquinoline (HAQ) production [1]: potent inhibitors; also recorded: potently inhibit
- production of the principal members of the three main HAQ families (HHQ, HQNO, PQS) [1]: dramatically decreased; also recorded: strongly inhibited
- time course of mortality ([3]; single IV injection 20 mM at 6 hr BI (FIG. 26)): delayed mortality
- survival ([3]; single IV injection 20 mM at 6 hr BI, control 10% (FIG. 26)): 40%
- survival ([3]; single IV injection 20 mM at 12 hr BI (FIG. 26)): up to 60%
- final mice survival rate at 7 days post burn and infection [3]: ~35%
- toxicity (deaths) ([6]; second IV injection of 20 mM at 12 or 18 hr): a significant number of mice die
- mortality ([6]; second IV injection of 20 mM at 24 hr): 10%
- toxicity ([6]; single IV injection 100 μl 20 mM, 6 hrs post-burn): non-toxic
- systemic dissemination of P. aeruginosa (cfu/mg in muscle adjacent to burn) ([7]; 100 μL of 20 mM 6-FABA post-burn and infection (FIG. 28A)): limits significantly the systemic dissemination
- bacteria in blood ([7]; 100 μL of 20 mM 6-FABA, blood at 24 hrs (FIG. 28B)): no bacteria are detected
- accumulation of anthranilic acid [4]: transient accumulation
- effect of increasing concentrations of AA on inhibition of HAQ production [4]: reversed the inhibition
- pyocyanin production [5]: without abrogating pyocyanin production
- solubility [8]: 20 mM (≈ 3100 µg/mL)

SMILES: CC(=O)c1ccc(N)cc1 [4AA, 4′-aminoacetophenone]
- Bacterial growth [2, 11]: only slightly retarded
- average survival after 5 days [3]: 50%

SMILES: Nc1cc(Cl)ccc1C(=O)O [4-CABA, 4-chloro-2-aminobenzoic acid]
- Bacterial growth ([2]; 1.5 mM compound, followed over 35 hours at 600 nm (FIG. 6)): only slightly retarded
- bacterial growth (PA14) [2]: without affecting bacterial growth
- HAQ production / HAQs synthesis [1]: completely halted
- inhibition of 4-hydroxy-2-alkylquinoline (HAQ) production [1]: potent inhibitors
- production of the principal members of the three main HAQ families (HHQ, HQNO, PQS) [1]: dramatically decreased
- final mice survival rate at 7 days post burn and infection [3]: ~50%
- accumulation of anthranilic acid [4]: transient accumulation
- pyocyanin production [5]: without abrogating pyocyanin production

SMILES: CC(=O)c1ccccc1[N+](=O)[O-] [2NA, 2′-nitroacetophenone]
- Bacterial growth [2, 11]: only slightly retarded
- average survival after 5 days [3]: 50%

SMILES: Nc1ccc(F)cc1C(=O)O [5-FABA, 5-fluoro-2-aminobenzoic acid]
- HAQ production / HAQs synthesis [1]: inhibited HAQ production
- inhibition of 4-hydroxy-2-alkylquinoline (HAQ) production [1]: potent inhibitors

SMILES: CCCCCCCc1nc2ccccc2c(O)c1O [PQS, 3,4-dihydroxy-2-heptylquinoline, reference compound]
- MvfR-dependent pqsA-lacZ activity [9]: induce MvfR-dependent pqsA-lacZ activity
- MvfR-pqsA promoter binding [10]: potentiate MvfR-pqsA promoter binding

SMILES: COC(=O)c1ccccc1N [MA, methyl anthranilate, reference compound]
- PA14 growth ([2]; methylanthranilate (FIG. 25B)): inhibits PA14 growth
- PQS production [1]: prevents PQS production
- levels of HAQs [1]: reduces the levels of several HAQs
- production of N-oxides [1]: production of N-oxides at very high concentrations

SMILES: CCCCCCCc1cc(O)c2ccccc2n1 [HHQ, 4-hydroxy-2-heptylquinoline, reference compound]
- MvfR-dependent pqsA-lacZ activity [9]: induce MvfR-dependent pqsA-lacZ activity
- MvfR-pqsA promoter binding [10]: potentiate MvfR-pqsA promoter binding, with weaker activity seen with HHQ versus PQS

SMILES: CC(=O)c1cccc(O)c1N [2-amino-3 hydroxy acetophenone]
- protection (survival curves) ([3]; 10 mM solutions IV 4 days pre-BI (FIGS. 11A, 11B)): decreased protective efficacy versus 2AA
